Holding throughout (assay type): biochemical
Experiment [1] addresses T1, BhCysFE (Bradyrhizobium huanghuaihaiense, UniProt A0A562R406).
T1 construct: gene IQ16_06114; natural fusion (CysF-like aa 1-487, linker ATPVNMR, CysE-like aa 495-768), C-terminal His tag (pET28-a(+)), E. coli
T1 sequence (A0A562R406 1-768): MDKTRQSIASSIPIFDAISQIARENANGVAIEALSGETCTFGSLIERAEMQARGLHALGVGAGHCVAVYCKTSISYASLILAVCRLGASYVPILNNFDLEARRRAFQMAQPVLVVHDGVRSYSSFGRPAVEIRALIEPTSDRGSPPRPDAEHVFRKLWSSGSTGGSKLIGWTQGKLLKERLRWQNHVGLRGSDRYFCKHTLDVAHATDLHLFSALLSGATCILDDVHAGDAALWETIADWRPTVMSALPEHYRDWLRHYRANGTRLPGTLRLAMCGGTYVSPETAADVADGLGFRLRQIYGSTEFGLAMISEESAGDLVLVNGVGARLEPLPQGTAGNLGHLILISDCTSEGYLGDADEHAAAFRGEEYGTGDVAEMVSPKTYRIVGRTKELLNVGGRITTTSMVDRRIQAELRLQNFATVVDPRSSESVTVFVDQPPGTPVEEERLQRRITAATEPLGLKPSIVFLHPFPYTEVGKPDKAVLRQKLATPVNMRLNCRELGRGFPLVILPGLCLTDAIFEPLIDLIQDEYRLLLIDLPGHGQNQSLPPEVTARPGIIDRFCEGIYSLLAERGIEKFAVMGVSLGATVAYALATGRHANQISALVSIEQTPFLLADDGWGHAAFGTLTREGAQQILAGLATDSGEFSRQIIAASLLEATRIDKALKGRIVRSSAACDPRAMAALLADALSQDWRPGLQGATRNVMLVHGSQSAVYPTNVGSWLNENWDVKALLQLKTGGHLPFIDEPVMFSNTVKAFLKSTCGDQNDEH
Description: LC-MS.

For experiment [2], the target named is T2, CysF (Kitasatospora cystarginea, UniProt A0A1W6R555).
T2 construct: C-terminal His tag (pET21-a(+)), E. coli; 8RA0 is the apo structure, residues 1-491 mentioned
T2 sequence (A0A1W6R555 1-491): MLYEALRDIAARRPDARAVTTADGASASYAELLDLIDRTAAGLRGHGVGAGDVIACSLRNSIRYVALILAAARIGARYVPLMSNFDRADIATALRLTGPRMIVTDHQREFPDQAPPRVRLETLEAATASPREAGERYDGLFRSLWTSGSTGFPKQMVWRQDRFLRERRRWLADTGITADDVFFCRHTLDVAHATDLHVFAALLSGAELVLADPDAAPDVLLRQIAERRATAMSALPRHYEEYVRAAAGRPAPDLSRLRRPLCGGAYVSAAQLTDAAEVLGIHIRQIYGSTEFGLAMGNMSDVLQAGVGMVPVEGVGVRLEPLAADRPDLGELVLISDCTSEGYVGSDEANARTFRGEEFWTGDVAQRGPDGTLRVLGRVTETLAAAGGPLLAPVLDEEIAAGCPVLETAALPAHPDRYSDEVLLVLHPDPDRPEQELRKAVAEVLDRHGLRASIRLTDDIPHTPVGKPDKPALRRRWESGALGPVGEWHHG
Description: GC-MS and 1H NMR product analysis. To be noted: ATP, MgCl2, phosphate pH 7.8, 25 °C; β-lactonization to 3a.

In experiment [3] the target is T3, CysG (Kitasatospora cystarginea, UniProt A0A1W6R556).
T3 construct: C-terminal His tag (pET28-a(+)), E. coli BL21(DE3)
T3 sequence (A0A1W6R556 1-228): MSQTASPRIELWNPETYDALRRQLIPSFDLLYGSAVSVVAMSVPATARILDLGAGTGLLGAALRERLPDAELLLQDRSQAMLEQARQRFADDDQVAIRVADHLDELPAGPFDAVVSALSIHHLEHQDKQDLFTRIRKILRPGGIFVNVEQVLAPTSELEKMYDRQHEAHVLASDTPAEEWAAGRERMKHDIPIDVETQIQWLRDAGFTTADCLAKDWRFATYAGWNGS
The experiment is described as follows: LC-MS and NMR product analysis. Particulars: MgCl2, phosphate pH 7.8, 25 °C.

Experiment [4] has as its target T2, CysF. The experiment is described as follows: LC-MS, hydroxylamine trapping as hydroxamic acid […]. Particulars: ATP, adenylation only, no lactone formed.
For experiment [5], the target named is T4, CysE (Kitasatospora cystarginea, UniProt A0A1W6R564).
T4 construct: C-terminal His tag (pET28-a(+)), E. coli BL21(DE3)
T4 sequence (A0A1W6R564 1-271): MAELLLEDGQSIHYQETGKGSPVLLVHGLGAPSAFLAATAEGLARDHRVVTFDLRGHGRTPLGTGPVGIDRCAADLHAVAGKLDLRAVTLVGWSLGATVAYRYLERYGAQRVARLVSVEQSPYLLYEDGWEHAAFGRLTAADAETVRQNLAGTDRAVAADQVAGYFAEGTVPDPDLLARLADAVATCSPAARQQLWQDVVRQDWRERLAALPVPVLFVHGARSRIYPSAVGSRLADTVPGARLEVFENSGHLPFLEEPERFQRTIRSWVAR
The experiment is described as follows: LC-MS, tandem assay with CysF. To be noted: 3a generated in situ from 2a by CysF and ATP; MgCl2, phosphate pH 7.8, 25 °C.

For experiment [6], the target named is T5, BelH (Streptomyces sp., UniProt A0A1W6R584).
T5 construct: N-terminal His tag (pET28-a(+)), E. coli BL21(DE3)
T5 sequence (A0A1W6R584 1-491): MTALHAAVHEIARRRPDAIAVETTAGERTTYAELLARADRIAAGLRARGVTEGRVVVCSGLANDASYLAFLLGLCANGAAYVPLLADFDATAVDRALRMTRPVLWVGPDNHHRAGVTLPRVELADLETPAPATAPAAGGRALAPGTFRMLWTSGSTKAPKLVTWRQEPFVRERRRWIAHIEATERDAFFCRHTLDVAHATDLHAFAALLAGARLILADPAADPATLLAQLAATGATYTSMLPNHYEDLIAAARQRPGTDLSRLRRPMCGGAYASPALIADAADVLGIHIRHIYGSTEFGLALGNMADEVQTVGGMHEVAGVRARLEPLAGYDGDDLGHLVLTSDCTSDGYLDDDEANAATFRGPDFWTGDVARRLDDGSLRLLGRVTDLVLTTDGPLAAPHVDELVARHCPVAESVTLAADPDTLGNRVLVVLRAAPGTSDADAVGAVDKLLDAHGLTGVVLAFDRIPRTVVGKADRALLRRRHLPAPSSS
The experiment is described as follows: LC-MS and GC-MS, cascade assay with BelI or BelR. To be noted: ATP, MgCl2, phosphate pH 7.8, 25 °C; β-lactonization to 3b.

For `COC(=O)[C@H](O)[C@@H](C(=O)O)C(C)C` [2a, C1-methyl ester 2a], the LC-MS result in experiment [1] (ATP, lactonization and ester hydrolysis to 4a) was “incubated with 2a and ATP, leading to a quantitative production of 4a”. The “GC-MS and 1H NMR product analysis” value in experiment [2] is given as 2a was again consumed in the CysF reaction with ATP.

Consider `Nc1ncnc2c1ncn2[C@@H]1O[C@H](COP(=O)(O)OP(=O)(O)OP(=O)(O)O)[C@@H](O)[C@H]1O` [adenosine triphosphate], for which the LC-MS result in experiment [1] (co-substrate 2a) is “incubated with 2a and ATP, leading to a quantitative production of 4a”.

For `CC(C)[C@H](C(=O)O)[C@@H](O)C(=O)O` [1a, malic acid 1a], in experiment [3] (SAM, C1-carboxylate methylated), the “LC-MS and NMR product analysis” value was “CysG exclusively produced the C1-methyl ester 2a from 1a and SAM”. For the same compound, the “LC-MS, hydroxylamine trapping as hydroxamic acid 10” value in experiment [4] is given as “CysF can efficiently activate the C4-carboxyl of 1a”.

`C[S+](CC[C@H](N)C(=O)O)C[C@H]1O[C@@H](n2cnc3c(N)ncnc32)[C@H](O)[C@@H]1O` (some centres unmarked) [S-adenosyl methionine]: the “LC-MS and NMR product analysis” value in experiment [3] (co-substrate 1a) was “CysG exclusively produced the C1-methyl ester 2a from 1a and SAM”.

For the compound `COC(=O)[C@@H]1OC(=O)[C@H]1C(C)C` [3a, β-lactone methyl ester 3a], the “LC-MS, tandem assay with CysF” value in experiment [5] was “tandem reaction with CysF and CysE, including ATP, resulted in the β-lactone carboxylic acid 4a”.

For the compound `CCC(C)[C@H](C(=O)O)[C@@H](O)C(=O)OC` (some centres unmarked) [2b], the “LC-MS and GC-MS, cascade assay with BelI or BelR” value in experiment [6] is “GC-MS analysis of the CysGF and BelIH cascade confirmed the formation of 3a/b”.

These data come from paper PMC11427300, “Cryptic enzymatic assembly of peptides armed with β-lactone warheads” (Nature Chemical Biology, 2024).
